Laboratory results from PMC8453114 (Journal of molecular biology, 2021).

Assays:
HTLV-1 myr(−)MA [1] = biological target: T1, HTLV-1 myr(−)MA (Human T-cell leukemia virus type I, UniProt Q9QR99); assay: 1H-15N HSQC NMR titration; assay type: binding
HTLV-1 myr(−)MA [2] = biological target: T1, HTLV-1 myr(−)MA; assay: 1H NMR liposome; assay type: binding

Compound | Kd (HTLV-1 myr(−)MA [1]) [µM] | Kd (HTLV-1 myr(−)MA [2]) [µM]
O=P(O)(O)O[C@@H]1[C@H](O)[C@H](O)[C@@H](OP(=O)(O)O)[C@H](OP(=O)(O)O)[C@H]1O [IP3, inositol 1,4,5-trisphosphate] | 338 ± 42 | –
O=P(O)(O)O[C@H]1[C@H](OP(=O)(O)O)[C@@H](OP(=O)(O)O)[C@H](OP(=O)(O)O)[C@@H](OP(=O)(O)O)[C@H]1OP(=O)(O)O [IP6, inositol hexakisphosphate] | 23 ± 11 | –
CCCCCCCC/C=C\CCCCCCCC(=O)O[C@H](COC(=O)CCCCCCCCCCCCCCC)COP(=O)(O)OC[C@H](N)C(=O)O [POPS, 1-palmitoyl-2-oleoyl-sn-glycero-3-phospho-L-serine] | – | 118 ± 16
CCCC(=O)OC[C@H](COP(=O)(O)O[C@@H]1[C@H](O)[C@H](O)[C@@H](OP(=O)(O)O)[C@H](OP(=O)(O)O)[C@H]1O)OC(=O)CCC [diC4-PI(4,5)P2] | 306 ± 30 | –
CCCCCC(=O)OC[C@H](COP(=O)(O)O[C@@H]1[C@H](O)[C@H](O)[C@@H](OP(=O)(O)O)[C@H](OP(=O)(O)O)[C@H]1O)OC(=O)CCCCC [diC6-PI(4,5)P2] | 195 ± 19 | –
CCCCCCCCCCCCCCCC(=O)OC[C@H](COP(=O)(O)O[C@@H]1[C@H](O)[C@H](OP(=O)(O)O)[C@@H](O)[C@H](OP(=O)(O)O)[C@H]1O)OC(=O)CCCCCCCCCCCCCCC [diC16-PI(3,5)P2, dipalmitoyl-phosphatidylinositol 3,5-bisphosphate] | – | 32 ± 2
